{"source": "paper PMC4715436", "about": "“The role of 2,4-dihydroxyquinoline (DHQ) in Pseudomonas aeruginosa pathogenicity” (PeerJ, 2016)", "key": {"[1]": {"molecular_target": "T1, PqsR (Pseudomonas aeruginosa, UniProt Q9I4X0)", "assay": "STD-NMR titration ([…] to […] DHQ, […] SUMO-PqsR-C87); EMSA also gave an apparent Kd of […]", "type": "binding", "design": "gene mvfR"}, "[2]": {"molecular_target": "T1, PqsR", "assay": "EMSA with lysate of E. coli Rosetta expressing His-SUMO-PqsR and biotinylated pqsA promoter DNA, semi-quantitative apparent Kd", "type": "biochemical", "design": "gene mvfR; recombinant PqsR, N-terminal His-tagged SUMO fusion"}, "[3]": {"system": "His-SUMO-PqsR (Pseudomonas aeruginosa (PAO1?))", "assay": "EMSA"}}}
{"compound": "Oc1cc(O)c2ccccc2n1", "note": "[DHQ, 2,4-dihydroxyquinoline]", "values": [{"measurement": "Kd", "setting": "[1]", "value": "~450", "unit": "nM"}]}
{"compound": "CCCCCCCc1[nH]c2ccccc2c(=O)c1O", "note": "[PQS, 2-heptyl-3-hydroxy-4-quinolone]", "values": [{"measurement": "Kd", "setting": "[2]", "value": 33, "unit": "nM"}]}
{"compound": "Bio-pqsA (pqsA' promoter probe)", "values": [{"measurement": "binding signal (fraction free probe)", "setting": "[3]", "value": 0.0488}]}
